The source of these data is publication PMC7806715, “Discovery of small molecules targeting the tandem tudor domain of the epigenetic factor UHRF1 using fragment-based ligand discovery” (Scientific Reports, 2021).

For series [1], the target named is T1, TTD-PHD RR295/296AA mutant vs. H3K9me3 peptide (Homo sapiens, UniProt Q96T88, R295A/R296A).
T1 construct: made in house; host or cells: E. coli (host printed for TTD-PHD in general: Rosetta (DE3))
T1 sequence (Q96T88 123-366 R295A/R296A): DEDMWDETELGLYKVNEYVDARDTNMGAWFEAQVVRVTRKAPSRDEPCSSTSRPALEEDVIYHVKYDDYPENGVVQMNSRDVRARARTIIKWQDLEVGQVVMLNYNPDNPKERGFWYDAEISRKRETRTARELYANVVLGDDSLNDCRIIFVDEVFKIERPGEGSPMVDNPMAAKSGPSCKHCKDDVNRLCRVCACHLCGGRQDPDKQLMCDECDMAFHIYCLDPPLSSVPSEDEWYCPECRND
As to the kind of experiment: TR-FRET assay: TTD-PHD RR295/296AA mutant binding to H3K9me3 peptide. The note with it: 2.5 mM 2,4-lutidine. It is filed as biochemical. As for the experimental part: The fragment screen was carried out on low volume 384-well white plates (Corning 4512) and the assay was performed at room temperature. […] After 1 h of incubation, the fluorescent signals at 665 nm and 620 nm of each plate were measured by the Tecan Infinite M1000 plate reader (excitation 340 nm, 60 μs lag time, and 500 μs integration time) and the TR-FRET signal was calculated by the ratio of 665 nm/620 nm fluorescent signal. For the fragment screen, on seven of the library plates there were 32-wells of DMSO control, while there were 8-wells of DMSO control in the last plate. […] The only difference was that the final concentration of […] assay, while the final concentration of His6-UHRF1-FL was 200 nM and biotin-H3K9me3 peptide was 100 nM for the His6-UHRF1-FL TR-FRET assay. The buffer pH was 7.5 for the His6-TTD-PHD and His6-UHRF1-FL assays.
(In general: TR-FRET usually uses a lanthanide donor and a delayed reading to cut background.)

The conditions of series [2]: no reference given; cited from earlier work.
The next series deals with T2, His6-TTD-PHD (Homo sapiens, UniProt Q96T88).
T2 construct: made in house; host or cells: Rosetta (DE3) E. coli, pMCSG7
T2 sequence (Q96T88 123-366): T1 sequence (Q96T88 123-366 R295A/R296A) with A173R, A174R
As to the kind of experiment: Intrinsic tryptophan fluorescence of His6-TTD-PHD. It is filed as binding. As to conditions: 3.2 µM protein. As for the experimental part: The untagged TTD was diluted to 30 µM by buffer (50 mM sodium phosphate, pH 7.5, 150 mM NaCl) with or without 60 µM of H3K9me3 peptide (1–20) (Anaspec). 10 µL of diluted TTD was added into 384-well flat bottom black plate (Greiner, Cat# 781086). […] The final concentration of TTD was 15 µM and the H3K9me3 peptide (if included) was 30 µM. The experiment was performed at room temperature. […] After compound addition, the intrinsic tryptophan fluorescence was analyzed by the Tecan Infinite M1000 plate reader (excitation 280 nm, emission 334 nm). […] Tryptophan fluorescence monitors 2 , 4 - lutidine binding to His 6 - TTD, His 6 - TTD - PHD, and C - FLAG - UHRF 1 - FL . 2 , 4 - Lutidine dose - dependently quenched the tryptophan fluorescence of TTD (purple circle), while only started to show quenching effect against His 6 - TTD - PHD at mM concentration (blue diamond) . 2 , 4 - Lutidine had no effect on the fluorescence of C - FLAG - UHRF 1 - FL and the control USP 7 - UBL 1 / 2 protein . n= 3 for each data point . (Note : the standard deviation error bars are included, but the error values are often extremely small in this assay) . […]

Series [3] deals with T3, His6-TTD (UHRF1 tandem Tudor domain) vs. H3K9me3 peptide (Homo sapiens, UniProt Q96T88).
T3 construct: Using the isolated His6-TTD (aa 123–283) we performed a thermal shift assay; made in house; host or cells: Rosetta (DE3) E. coli, pMCSG7
T3 sequence (Q96T88 123-283): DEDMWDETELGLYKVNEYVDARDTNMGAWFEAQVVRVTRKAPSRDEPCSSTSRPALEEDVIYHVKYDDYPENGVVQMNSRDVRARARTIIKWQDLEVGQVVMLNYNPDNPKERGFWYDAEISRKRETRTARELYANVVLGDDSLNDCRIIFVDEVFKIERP
As to the kind of experiment: TR-FRET assay: His6-TTD interaction with H3K9me3 peptide. It counts as biochemical. The note with it: protein treated with PKA and ATP 1 h at 30 °C. As for the experimental part:
Finally, the fragment library was screened using a TR-FRET assay to find inhibitors that block the interaction of His6-TTD with H3K9me3 peptide. In this assay, an anti-His6-antibody labeled with Tb cryptate binds to His6-TTD while a streptavidin-d2 acceptor binds to a biotinylated histone H3K9me3 peptide. The binding between His6-TTD and H3K9me3 peptide was measured by the ratio of 665 nm fluorescence (from the d2 acceptor) to 620 nm fluorescence (from the Tb cryptate donor) (Fig. 1D).
The fragment screen was carried out on low volume 384-well white plates (Corning 4512) and the assay was performed at room temperature. […] After 1 h of incubation, the fluorescent signals at 665 nm and 620 nm of each plate were measured by the Tecan Infinite M1000 plate reader (excitation 340 nm, 60 µs lag time, and 500 µs integration time) and the TR-FRET signal was calculated by the ratio of 665 nm/620 nm fluorescent signal. For the fragment screen, on seven of the library plates there were 32-wells of DMSO control, while there were 8-wells of DMSO control in the last plate. […] The only difference was that the final concentration of His6-TTD-PHD was 200 nM, biotin-H3K9me3 peptide was 200 nM for the His6-TTD-PHD TR-FRET assay, while the final concentration of His6-UHRF1-FL was 200 nM and biotin-H3K9me3 peptide was 100 nM for the His6-UHRF1-FL TR-FRET assay. The buffer pH was 7.5 for the His6-TTD-PHD and His6-UHRF1-FL assays.

A word on the pKa: it is the negative logarithm of the acid dissociation constant.

Molecules are shown by their SMILES. Numbering of substitutions follows the chain as printed.

In the case of `Cc1ccnc(C)c1` [2,4-lutidine], in series [1], the “inhibition of binding to H3K9me3 peptide” value turned out to be 57.6%. For the same compound, the pKa in series [2] is 6.99. Moreover, on His6-TTD-PHD, the “quenching of His6-TTD-PHD tryptophan fluorescence (in words)” value is “only at close to mM concentrations”. Besides, the “effect of PKA treatment of His6-TTD on inhibition of H3K9me3 peptide binding (in words)” value in series [3] is given as “no effect”.
